Legend:
[1] = molecular target: T1, Histone deacetylase 8 (Homo sapiens, UniProt Q9BY41); assay: Inhibition of HDAC8 (unknown origin) using (FAM)-labeled acetylated peptide as substrate measured after 17 hrs by fluorescence assay
T1 sequence (Q9BY41 whole entry): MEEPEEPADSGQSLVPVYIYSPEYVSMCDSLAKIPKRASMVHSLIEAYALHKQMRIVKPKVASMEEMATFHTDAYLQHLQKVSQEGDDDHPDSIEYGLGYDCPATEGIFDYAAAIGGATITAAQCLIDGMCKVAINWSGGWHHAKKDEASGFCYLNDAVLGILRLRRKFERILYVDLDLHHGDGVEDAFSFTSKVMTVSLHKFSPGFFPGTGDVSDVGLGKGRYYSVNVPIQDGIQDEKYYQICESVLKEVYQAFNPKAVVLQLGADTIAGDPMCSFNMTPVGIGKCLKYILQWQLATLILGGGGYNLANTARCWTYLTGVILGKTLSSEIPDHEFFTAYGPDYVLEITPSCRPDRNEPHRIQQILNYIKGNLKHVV

[2] = molecular target: T2, Histone deacetylase 2 (Homo sapiens, UniProt Q92769); assay: Inhibition of HDAC2 (unknown origin) using (FAM)-labeled acetylated peptide as substrate measured after 17 hrs by fluorescence assay
[3] = molecular target: T3, Polyamine deacetylase HDAC10 (Homo sapiens, UniProt Q969S8); assay: Inhibition of HDAC10 (unknown origin) using (FAM)-labeled acetylated peptide as substrate measured after 17 hrs by fluorescence assay
T3 sequence (Q969S8 whole entry): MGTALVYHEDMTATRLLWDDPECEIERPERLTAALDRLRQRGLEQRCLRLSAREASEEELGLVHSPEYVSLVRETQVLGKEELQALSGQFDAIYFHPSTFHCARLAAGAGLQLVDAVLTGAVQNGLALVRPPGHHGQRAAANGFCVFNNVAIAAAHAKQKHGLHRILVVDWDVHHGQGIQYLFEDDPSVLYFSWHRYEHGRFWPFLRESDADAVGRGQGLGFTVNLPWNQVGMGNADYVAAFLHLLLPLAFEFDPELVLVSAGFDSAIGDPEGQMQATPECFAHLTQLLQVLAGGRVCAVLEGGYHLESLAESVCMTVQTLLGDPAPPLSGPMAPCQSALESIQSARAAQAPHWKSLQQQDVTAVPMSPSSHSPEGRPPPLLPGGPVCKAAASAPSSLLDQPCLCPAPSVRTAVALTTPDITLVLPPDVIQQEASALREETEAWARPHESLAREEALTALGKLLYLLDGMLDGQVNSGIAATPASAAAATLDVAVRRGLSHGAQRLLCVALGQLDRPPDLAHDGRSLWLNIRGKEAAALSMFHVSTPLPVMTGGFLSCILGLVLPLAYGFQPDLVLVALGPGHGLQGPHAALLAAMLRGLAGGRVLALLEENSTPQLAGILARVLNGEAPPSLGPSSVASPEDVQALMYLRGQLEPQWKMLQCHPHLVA

[4] = molecular target: Histone deacetylase 3 (Homo sapiens, UniProt O15379); assay: Inhibition of HDAC3 (unknown origin) using (FAM)-labeled acetylated peptide as substrate measured after 17 hrs by fluorescence assay
[5] = molecular target: T4, Histone deacetylase 1 (Homo sapiens, UniProt Q13547); assay: Inhibition of HDAC1 (unknown origin) using (FAM)-labeled acetylated peptide as substrate measured after 17 hrs by fluorescence assay
[6] = molecular target: T5, Protein deacetylase HDAC6 (Homo sapiens, UniProt Q9UBN7); assay: Inhibition of HDAC6 (unknown origin) using (FAM)-labeled acetylated peptide as substrate measured after 17 hrs by fluorescence assay
T5 sequence (Q9UBN7 whole entry): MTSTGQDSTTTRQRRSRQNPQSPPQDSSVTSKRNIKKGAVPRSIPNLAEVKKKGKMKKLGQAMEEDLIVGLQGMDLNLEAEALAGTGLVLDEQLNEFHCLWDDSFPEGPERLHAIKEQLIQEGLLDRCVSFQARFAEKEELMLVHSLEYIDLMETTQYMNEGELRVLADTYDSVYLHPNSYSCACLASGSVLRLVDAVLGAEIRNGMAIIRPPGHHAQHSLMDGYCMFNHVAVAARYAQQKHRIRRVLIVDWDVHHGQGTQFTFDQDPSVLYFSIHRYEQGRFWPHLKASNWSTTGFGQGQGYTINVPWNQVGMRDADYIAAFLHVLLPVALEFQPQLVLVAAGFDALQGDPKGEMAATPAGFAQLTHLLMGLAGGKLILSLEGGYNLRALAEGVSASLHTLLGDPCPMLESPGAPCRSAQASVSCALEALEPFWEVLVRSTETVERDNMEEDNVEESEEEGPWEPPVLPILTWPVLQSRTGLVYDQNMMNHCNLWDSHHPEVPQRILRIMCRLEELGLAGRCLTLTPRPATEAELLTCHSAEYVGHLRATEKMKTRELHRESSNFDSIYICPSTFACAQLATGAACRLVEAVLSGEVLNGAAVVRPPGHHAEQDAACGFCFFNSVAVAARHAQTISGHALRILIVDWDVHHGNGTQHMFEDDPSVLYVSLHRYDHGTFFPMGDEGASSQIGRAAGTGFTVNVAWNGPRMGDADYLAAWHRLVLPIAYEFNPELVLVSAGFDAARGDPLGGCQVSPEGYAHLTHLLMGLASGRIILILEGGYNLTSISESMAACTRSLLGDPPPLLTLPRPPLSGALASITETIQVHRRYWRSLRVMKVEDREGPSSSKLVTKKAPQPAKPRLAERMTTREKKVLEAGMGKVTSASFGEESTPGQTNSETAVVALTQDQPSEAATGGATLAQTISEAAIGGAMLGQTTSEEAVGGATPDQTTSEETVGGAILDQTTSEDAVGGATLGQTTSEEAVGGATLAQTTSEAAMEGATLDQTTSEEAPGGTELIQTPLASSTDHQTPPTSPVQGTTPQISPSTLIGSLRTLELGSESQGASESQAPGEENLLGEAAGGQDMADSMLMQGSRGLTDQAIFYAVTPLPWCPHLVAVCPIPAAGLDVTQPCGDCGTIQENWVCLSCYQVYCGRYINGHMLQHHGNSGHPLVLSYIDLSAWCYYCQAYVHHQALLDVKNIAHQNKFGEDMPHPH

[7] = molecular target: T6, Histone deacetylase 4 (Homo sapiens, UniProt P56524); assay: Inhibition of HDAC4 (unknown origin)
[8] = molecular target: T7, Histone deacetylase 7 (Homo sapiens, UniProt Q8WUI4); assay: Inhibition of HDAC7 (unknown origin)
T7 sequence (Q8WUI4 whole entry): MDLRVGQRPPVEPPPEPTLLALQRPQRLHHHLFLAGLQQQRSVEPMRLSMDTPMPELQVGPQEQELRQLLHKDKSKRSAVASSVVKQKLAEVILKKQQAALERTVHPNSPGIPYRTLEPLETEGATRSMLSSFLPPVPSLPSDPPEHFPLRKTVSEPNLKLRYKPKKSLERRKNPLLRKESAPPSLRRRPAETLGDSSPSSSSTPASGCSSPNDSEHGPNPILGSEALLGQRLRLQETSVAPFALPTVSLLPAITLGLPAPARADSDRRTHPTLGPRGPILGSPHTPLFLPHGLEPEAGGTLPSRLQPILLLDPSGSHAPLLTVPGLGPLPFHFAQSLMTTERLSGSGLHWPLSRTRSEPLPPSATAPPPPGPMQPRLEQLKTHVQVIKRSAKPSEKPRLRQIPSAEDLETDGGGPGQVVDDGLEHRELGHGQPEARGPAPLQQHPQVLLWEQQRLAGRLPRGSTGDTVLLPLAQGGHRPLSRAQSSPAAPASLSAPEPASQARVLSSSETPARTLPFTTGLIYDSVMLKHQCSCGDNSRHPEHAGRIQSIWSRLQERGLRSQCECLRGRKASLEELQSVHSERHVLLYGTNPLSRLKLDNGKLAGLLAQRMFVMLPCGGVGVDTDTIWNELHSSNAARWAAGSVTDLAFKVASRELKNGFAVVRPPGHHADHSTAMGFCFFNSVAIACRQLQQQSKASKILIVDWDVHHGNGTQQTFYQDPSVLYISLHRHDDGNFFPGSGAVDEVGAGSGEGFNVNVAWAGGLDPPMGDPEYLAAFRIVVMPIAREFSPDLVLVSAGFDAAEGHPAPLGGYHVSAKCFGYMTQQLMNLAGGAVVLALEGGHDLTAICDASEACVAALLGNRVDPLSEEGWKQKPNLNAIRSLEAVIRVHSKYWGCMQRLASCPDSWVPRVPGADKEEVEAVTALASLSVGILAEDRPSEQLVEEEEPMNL

[9] = molecular target: Histone deacetylase 5 (Homo sapiens, UniProt Q9UQL6); assay: Inhibition of HDAC5 (unknown origin)
[10] = molecular target: Histone deacetylase 3/NCoR1 (Homo sapiens, UniProt O15379); assay: Inhibition of human recombinant HDAC3/GST-tagged NCOR1 DAD (397 to 503 residues) expressed in baculovirus expression system by fluorescence assay
[11] = molecular target: T5, Protein deacetylase HDAC6; assay: Inhibition of recombinant human full length N-terminal GST-tagged HDAC6 expressed in Sf9 insect cells using (S)-6-acetamido-2-(2-((S)-2-acetamido-4-methylpentanamido)acetamido)-N-(4-methyl-2-oxo-2H-chromen-7-yl)hexanamide as substrate by fluorescence assay
[12] = Dissociation constant, pKa of the compound; assay type: physicochemical
[13] = molecular target: T2, Histone deacetylase 2; assay: Inhibition of recombinant human HDAC2 using fluorescently-labeled acetylated histone peptide as substrate by microfluidic mobility shift assay
[14] = molecular target: T5, Protein deacetylase HDAC6; assay: Inhibition of recombinant human HDAC6 using fluorescently-labeled acetylated histone peptide as substrate by microfluidic mobility shift assay
[15] = molecular target: T1, Histone deacetylase 8; assay: Inhibition of recombinant human HDAC8 using fluorescently-labeled acetylated histone peptide as substrate by microfluidic mobility shift assay
[16] = molecular target: T6, Histone deacetylase 4; assay: Inhibition of recombinant human HDAC4 using fluorescently-labeled acetylated histone peptide as substrate by microfluidic mobility shift assay
[17] = molecular target: T4, Histone deacetylase 1; assay: Inhibition of recombinant human HDAC1 using fluorescently-labeled acetylated histone peptide as substrate by microfluidic mobility shift assay
[18] = molecular target: T7, Histone deacetylase 7; assay: Inhibition of recombinant human HDAC7 using fluorescently-labeled acetylated histone peptide as substrate by microfluidic mobility shift assay

T4 sequence (Q13547 whole entry): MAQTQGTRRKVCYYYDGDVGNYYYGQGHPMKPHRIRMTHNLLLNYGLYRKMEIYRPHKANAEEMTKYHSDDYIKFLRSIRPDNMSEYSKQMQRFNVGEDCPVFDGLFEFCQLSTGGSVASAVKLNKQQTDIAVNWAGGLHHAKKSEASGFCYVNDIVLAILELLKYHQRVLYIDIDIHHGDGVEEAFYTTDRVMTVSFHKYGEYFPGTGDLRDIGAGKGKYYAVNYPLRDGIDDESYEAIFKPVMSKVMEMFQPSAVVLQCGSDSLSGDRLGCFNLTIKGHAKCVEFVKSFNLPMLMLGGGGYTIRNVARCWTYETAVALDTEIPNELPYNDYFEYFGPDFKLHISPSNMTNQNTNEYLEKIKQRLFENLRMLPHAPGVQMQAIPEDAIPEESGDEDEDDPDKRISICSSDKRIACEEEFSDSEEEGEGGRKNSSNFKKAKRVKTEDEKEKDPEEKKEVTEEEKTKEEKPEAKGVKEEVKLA
T2 sequence (Q92769 whole entry): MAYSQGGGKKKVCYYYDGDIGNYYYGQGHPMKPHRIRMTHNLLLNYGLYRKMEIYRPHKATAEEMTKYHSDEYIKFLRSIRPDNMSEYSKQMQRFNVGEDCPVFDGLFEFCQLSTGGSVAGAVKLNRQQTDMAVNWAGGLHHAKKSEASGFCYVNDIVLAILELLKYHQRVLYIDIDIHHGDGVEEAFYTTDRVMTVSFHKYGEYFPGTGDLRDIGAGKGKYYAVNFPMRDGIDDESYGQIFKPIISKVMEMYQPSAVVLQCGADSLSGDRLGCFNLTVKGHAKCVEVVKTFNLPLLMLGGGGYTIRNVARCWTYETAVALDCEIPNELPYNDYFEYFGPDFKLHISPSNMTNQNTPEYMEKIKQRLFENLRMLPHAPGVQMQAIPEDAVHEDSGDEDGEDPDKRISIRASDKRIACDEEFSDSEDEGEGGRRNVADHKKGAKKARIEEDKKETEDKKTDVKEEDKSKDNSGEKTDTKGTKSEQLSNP
Sequence of Histone deacetylase 3 (O15379 whole entry): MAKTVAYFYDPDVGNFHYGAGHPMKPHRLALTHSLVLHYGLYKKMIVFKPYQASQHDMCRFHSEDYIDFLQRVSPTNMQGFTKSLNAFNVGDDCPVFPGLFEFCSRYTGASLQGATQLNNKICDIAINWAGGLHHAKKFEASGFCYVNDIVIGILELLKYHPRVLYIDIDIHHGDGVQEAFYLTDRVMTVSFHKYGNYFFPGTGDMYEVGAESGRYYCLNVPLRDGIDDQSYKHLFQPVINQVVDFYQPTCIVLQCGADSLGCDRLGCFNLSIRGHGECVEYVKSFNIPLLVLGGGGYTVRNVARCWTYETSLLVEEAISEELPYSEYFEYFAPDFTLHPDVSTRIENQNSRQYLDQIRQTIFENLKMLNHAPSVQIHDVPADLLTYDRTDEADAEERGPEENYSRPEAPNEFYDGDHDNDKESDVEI
T6 sequence (P56524 whole entry): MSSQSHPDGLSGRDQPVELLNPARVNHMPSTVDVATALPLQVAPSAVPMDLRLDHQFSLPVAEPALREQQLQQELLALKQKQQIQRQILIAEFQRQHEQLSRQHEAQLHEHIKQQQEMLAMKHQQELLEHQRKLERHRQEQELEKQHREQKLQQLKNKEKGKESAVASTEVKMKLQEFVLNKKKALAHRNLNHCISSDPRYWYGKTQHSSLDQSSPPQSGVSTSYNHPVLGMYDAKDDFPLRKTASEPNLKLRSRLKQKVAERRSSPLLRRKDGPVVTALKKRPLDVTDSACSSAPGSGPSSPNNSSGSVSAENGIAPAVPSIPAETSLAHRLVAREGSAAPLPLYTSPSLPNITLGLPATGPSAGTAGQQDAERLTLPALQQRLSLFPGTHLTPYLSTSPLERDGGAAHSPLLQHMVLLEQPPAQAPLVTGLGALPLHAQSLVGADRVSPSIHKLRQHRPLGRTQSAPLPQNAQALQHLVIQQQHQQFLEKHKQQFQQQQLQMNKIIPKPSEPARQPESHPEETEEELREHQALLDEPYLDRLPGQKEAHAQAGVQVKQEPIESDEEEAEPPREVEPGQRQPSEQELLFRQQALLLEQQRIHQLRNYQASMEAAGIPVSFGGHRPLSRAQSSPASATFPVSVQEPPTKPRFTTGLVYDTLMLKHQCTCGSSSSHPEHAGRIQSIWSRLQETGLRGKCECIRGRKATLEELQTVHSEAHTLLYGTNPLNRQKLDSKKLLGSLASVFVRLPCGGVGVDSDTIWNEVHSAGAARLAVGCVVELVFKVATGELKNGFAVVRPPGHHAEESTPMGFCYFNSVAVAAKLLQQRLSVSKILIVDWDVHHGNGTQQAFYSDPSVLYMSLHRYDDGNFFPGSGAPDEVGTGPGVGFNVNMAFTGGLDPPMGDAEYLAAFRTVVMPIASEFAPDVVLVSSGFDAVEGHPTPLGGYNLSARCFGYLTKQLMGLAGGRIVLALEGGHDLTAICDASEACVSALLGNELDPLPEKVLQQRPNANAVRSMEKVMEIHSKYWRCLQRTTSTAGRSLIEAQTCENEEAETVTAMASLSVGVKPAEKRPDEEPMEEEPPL
Sequence of Histone deacetylase 5 (Q9UQL6 whole entry, the tested form may be a part): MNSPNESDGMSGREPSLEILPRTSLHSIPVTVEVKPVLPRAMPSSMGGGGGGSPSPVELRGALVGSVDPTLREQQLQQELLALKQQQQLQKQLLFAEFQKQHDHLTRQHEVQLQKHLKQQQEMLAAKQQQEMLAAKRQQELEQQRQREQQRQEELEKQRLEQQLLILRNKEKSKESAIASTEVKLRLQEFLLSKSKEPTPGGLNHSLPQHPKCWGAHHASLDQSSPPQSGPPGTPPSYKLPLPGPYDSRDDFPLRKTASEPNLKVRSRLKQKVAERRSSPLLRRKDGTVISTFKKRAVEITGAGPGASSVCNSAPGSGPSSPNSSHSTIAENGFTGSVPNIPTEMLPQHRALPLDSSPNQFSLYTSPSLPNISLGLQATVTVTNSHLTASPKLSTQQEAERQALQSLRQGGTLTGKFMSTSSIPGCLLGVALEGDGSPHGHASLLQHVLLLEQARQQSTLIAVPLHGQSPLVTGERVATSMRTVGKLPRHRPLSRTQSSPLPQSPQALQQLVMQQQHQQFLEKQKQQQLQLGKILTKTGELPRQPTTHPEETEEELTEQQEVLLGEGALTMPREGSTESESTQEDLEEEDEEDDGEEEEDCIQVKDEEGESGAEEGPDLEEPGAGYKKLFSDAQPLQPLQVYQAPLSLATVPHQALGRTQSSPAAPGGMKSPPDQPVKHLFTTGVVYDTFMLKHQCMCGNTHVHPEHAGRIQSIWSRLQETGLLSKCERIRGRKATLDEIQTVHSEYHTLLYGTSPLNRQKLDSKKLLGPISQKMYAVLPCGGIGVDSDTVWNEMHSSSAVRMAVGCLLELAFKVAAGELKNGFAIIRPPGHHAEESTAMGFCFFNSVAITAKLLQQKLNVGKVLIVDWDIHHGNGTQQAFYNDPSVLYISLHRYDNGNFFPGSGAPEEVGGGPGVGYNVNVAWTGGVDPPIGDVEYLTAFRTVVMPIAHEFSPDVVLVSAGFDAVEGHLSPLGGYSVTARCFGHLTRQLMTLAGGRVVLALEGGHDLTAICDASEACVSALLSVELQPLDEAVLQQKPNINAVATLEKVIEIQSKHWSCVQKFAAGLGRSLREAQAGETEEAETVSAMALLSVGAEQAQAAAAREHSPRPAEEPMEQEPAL

Row | Structure (SMILES) | IC50 [1] | IC50 [2] | IC50 [3] | IC50 [4] | IC50 [5] | IC50 [6] | also measured
1 | Nc1cccc(-c2csc(NC(=O)CCCCCC(=O)NO)n2)c1 | 1950 nM | 26.5 nM | 3.7 nM | 2.1 nM | 3.8 nM | 3.3 nM | 
2 | Nc1ccccc1NC(=O)CCCCCC(=O)Nc1ccccc1 |  |  |  |  |  |  | IC50 [7]: Not Active; IC50 [8]: Not Active; IC50 [9]: Not Active
3 | Nc1ccccc1NC(=O)c1ccc(-c2cn(CCc3ccsc3)nn2)cc1 |  |  |  |  |  |  | IC50 [10]: 240 nM
4 | Nc1ccccc1NC(=O)c1cnccn1 |  |  |  |  |  |  | IC50 [11]: > 20000 nM
5 | CC(=O)Nc1ccc(C(=O)Nc2ccc(F)cc2N)cc1 |  |  |  |  |  |  | pKa [12]: 2.33
6 | C=C1CN(Cc2ccc(C(=O)Nc3ccccc3N)cc2)C(=O)c2ccccc21 |  |  |  |  |  |  | IC50 [13]: 30 nM; IC50 [14]: > 10000 nM; IC50 [15]: > 10000 nM; IC50 [16]: 5000 nM; IC50 [17]: 4800 nM; IC50 [18]: 4100 nM
7 | CCOC(=O)Nc1cccc(-c2csc(NC(=O)CCCCCC(=O)NO)n2)c1 | 787 nM | 24.5 nM | 2.1 nM | 1.3 nM | 2.5 nM | 0.79 nM | 
8 | CC(C)(C)OC(=O)Nc1cccc(-c2csc(NC(=O)CCCCCC(=O)NO)n2)c1 | 2580 nM | 21 nM | 5.7 nM | 1.7 nM | 4.2 nM | < 0.17 nM | 
9 | Nc1cccc(-c2csc(NC(=O)CCCCCC(=O)Nc3ccccc3N)n2)c1 | > 30000 nM | 147 nM | 2910 nM | 60.3 nM | 2490 nM | > 30000 nM | 
10 | CC(=O)Nc1ccc(C(=O)Nc2ccccc2N)cc1 [TACEDINALINE] |  |  |  |  |  |  | pKa [12]: 3.33

More lines, main results first:

Row | IC50 [1] | IC50 [2] | IC50 [3] | IC50 [4] | IC50 [5] | IC50 [6] | Structure (SMILES) | also measured
11 | > 30000 nM | 1100 nM | 5300 nM | 160 nM | 4200 nM | 1500 nM | CC(C)(C)OC(=O)Nc1cccc(-c2csc(NC(=O)CCCCCC(=O)Nc3ccccc3N)n2)c1 | 
12 | > 30000 nM | 200 nM | 3000 nM | 30 nM | 3200 nM | 11200 nM | CC(=O)Nc1cccc(-c2csc(NC(=O)CCCCCC(=O)Nc3ccccc3N)n2)c1 | 
13 | > 30000 nM | 880 nM | > 30000 nM | 60 nM | 24800 nM | > 30000 nM | CCOC(=O)Nc1cccc(-c2csc(NC(=O)CCCCCC(=O)Nc3ccccc3N)n2)c1 | 

— ChEMBL document CHEMBL4400533, “Histone deacetylase 3 inhibitors in learning and memory processes with special emphasis on benzamides” (Eur J Med Chem, 2019)
